Counter-ions that a name gives are not always drawn.
Molecular target: T1, activated ROCK II (Rattus norvegicus, UniProt Q62868)
T1 construct: purchased Upstate Biotechnology 14-338
Assay: Test for Evaluation of Inhibiting Activity to Rho Kinase
Assay type: biochemical
Conditions: S6 Kinase Substrate Peptide, [γ-32P]ATP, 30° C. for 15 minutes, Ki=IC50/(1+S/Km)
Method: In order to find the utility of the present invention compound, a Rho kinase inhibiting activity of the present invention compound was evaluated. The details thereof will be illustrated under the item of “Pharmacological Test (Test for Evaluation of Rho Kinase Inhibiting Activity)” in the Examples which will be mentioned later. The evaluation of the Rho kinase inhibiting activity of the present invention compound was carried out in accordance with the methods mentioned in J. Biol. Chem., 274, 32418 (1999) by Kaibuchi, et al. and mentioned in the instruction manual for use attached to the commercially available activated ROCK II [Upstate Biotechnology, Catalog No. 14-338 (5 units/50 μl)].
A. Test for Evaluation of Inhibiting Activity to Rho Kinase
In order to test the usefulness of the compounds of the present invention as a Rho kinase inhibitor, inhibiting activities of the compounds of the present invention to Rho kinase were evaluated and investigated in accordance with the methods of Kaibuchi, et al. mentioned in J. Biol. Chem., 274, 32418, 1999 and also with the methods mentioned in the instruction manual for use attached to commercially available activated ROCK II [Upstate Biotechnology, Catalog No. 14-338, (5 unite/50 μl)]. With regard to the test compounds, the compounds 5-1 to 5-73 (except the compounds 5-2, 5-9, 5-18, 5-37 and 5-38) were used.
A buffer was prepared so as to make tris(hydroxymethyl)aminomethane (Tris) (pH 7.5), 50 mM, ethyleneglycol bis(β-aminoethyl ether)-N,N,N′,N′-tetraacetic acid (EGTA), 2 mM, ethylenediaminetetraacetic acid (EDTA), 1 mM, magnesium chloride (MgCl2) 5 mM, β-glycerol phosphate, 5 mM, and dithiothreitol (DTT), 2 mM, by mixing them.
A mixed liquid of a 10 mM ATP solution with a commercially available [γ-^32P]ATP solution [NEN, Code No. NEG-002A] was diluted with the buffer to prepare a 300 μM ATP [γ-^32P]ATP solution.
A Commercially Available Activated ROCK II [Upstate Biotechnology, Catalog No. 14-338, (5 Units/50 μl)] was diluted to a concentration of 1/100 with the buffer to prepare an activated ROCK II solution.
A S6 Kinase Substrate Peptide [Upstate Biotechnology, Catalog No. 12-124,] (2 mg) was dissolved in distilled water to prepare a 1 mM substrate solution.
A test compound was dissolved in 10% aqueous dimethyl sulfoxide solution.
1) The test compound solution is placed in a microtube.
2) The 300 μM ATP [γ-^32P]ATP solution is added to the microtube followed by cooling to 4° C.
3) After that, a permanently activated ROCK II solution, 1 mM substrate solution and buffer are added to each microtube in that order, and the whole is mixed and cooled again at 4° C.
4) The microtube is placed in an incubator (30° C.) and the mixture is subjected to reaction for 15 minutes.
5) After cooling to 4° C., a 250 mM phosphoric acid solution (5 μl) is added to each microtube to stop the reaction.
6) The reaction solution (30 μl) is taken out from each microtube and spotted on a filter paper (Whatman P81) so that the reaction product (phosphorylated substrate) is adsorbed to the filter paper.
7) The filter paper is transferred to a beaker in which a 75 mM phosphoric acid solution is placed and shaken for 5 minutes so that unreacted [γ-^32P]AfP is washed out. The washing operation as such is carried out four times.
8) After that, the filter paper is dipped in ethanol to dehydrate and energy amount (radioactivity) of the reaction product adsorbed to the filter paper is measured with a liquid scintillation counter.
The IC50 value was calculated by an XL-fit (IDBS).
The Ki value is calculated by the following formula. S is an ATP concentration contained in the reaction solution while Km is a Michaelis-Menten constant. Ki=IC50/(1+S/Km)

T1 sequence (Q62868 11-550 limits assumed): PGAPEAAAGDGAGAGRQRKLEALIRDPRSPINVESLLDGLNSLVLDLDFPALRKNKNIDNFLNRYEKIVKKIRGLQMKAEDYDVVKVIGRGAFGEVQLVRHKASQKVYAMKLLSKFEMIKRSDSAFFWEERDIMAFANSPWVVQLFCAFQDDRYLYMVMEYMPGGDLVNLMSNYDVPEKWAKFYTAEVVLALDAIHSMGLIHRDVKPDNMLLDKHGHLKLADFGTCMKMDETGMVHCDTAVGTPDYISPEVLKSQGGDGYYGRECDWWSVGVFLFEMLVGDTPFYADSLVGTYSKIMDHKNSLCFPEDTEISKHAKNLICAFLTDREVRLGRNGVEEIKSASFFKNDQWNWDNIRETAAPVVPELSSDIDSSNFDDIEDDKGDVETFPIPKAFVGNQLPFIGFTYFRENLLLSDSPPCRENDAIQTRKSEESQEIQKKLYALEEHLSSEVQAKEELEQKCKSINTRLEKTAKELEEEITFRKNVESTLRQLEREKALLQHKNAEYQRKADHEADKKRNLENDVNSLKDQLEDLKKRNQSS

SMILES: COc1c(-c2ccc(C(C)(C)N)cn2)ccc2[nH]ncc12 [Compound 5-45, 5-[5-(1-Amino-1-methylethyl)pyridin-2-yl]-4-methoxy-1H-indazole trihydrochloride]
- Ki: 27 nM

SMILES: CC(C)(N)c1ccc(-c2ccc3[nH]ncc3c2CCO)cc1 [Compound 5-32, 5-[4-(1-Amino-1-methylethyl)phenyl]-4-(2-hydroxy-ethyl)-1H-indazole dihydrochloride]
- Ki: 47 nM

SMILES: CC(C)(N)c1ccc(-c2ccc3[nH]nc(C#N)c3c2)cc1 [Compound 5-13, 5-[4-(1-Amino-1-methylethyl)phenyl]-3-cyano-1H-indazole dihydrochloride]
- Ki: 103 nM

SMILES: CN(C)c1c(-c2ccc(C(C)(C)N)cc2)ccc2[nH]ncc12 [Compound 5-16, 5-[4-(1-Amino-1-methylethyl)phenyl]-4-dimethylamino-1H-indazole trihydrochloride]
- Ki: 16 nM

SMILES: CCC(N)(CC)c1ccc(-c2ccc3[nH]ncc3c2OC2CC2)nc1 [Compound 5-71, 5-[5-(1-Amino-1-ethylpropyl)pyridin-2-yl]-4-cyclo-propyloxy-1H-indazole trihydrochloride]
- Ki: 34 nM

SMILES: COc1c(-c2ccc(C(C)(C)N)cc2)ccc2[nH]ncc12 [Compound 5-44, 5-[4-(1-Amino-1-methylethyl)phenyl]-4-methoxy-1H-indazole dihydrochloride]
- Ki: 13 nM

SMILES: CCOc1c(-c2ccc(C(C)(C)N)cn2)ccc2[nH]ncc12 [Compound 5-47, 5-[5-(1-Amino-1-methylethyl)pyridin-2-yl]-4-ethoxy-1H-indazole trihydrochloride]
- Ki: 45 nM

SMILES: CNc1c(-c2ccc(C(C)(C)N)cc2)ccc2[nH]ncc12 [Compound 5-7, 5-[4-(1-Amino-1-methylethyl)phenyl]-4-methylamino-1H-indazole trihydrochloride]
- Ki: 15 nM

SMILES: C=C(C)c1n[nH]c2ccc(-c3ccc(C(C)(C)N)cc3)cc12 [Compound 5-15, 5-[4-(1-Amino-1-methylethyl)phenyl]-3-(1-methyl-vinyl)-1H-indazole monotrifluoroacetate]
- Ki: 56 nM

SMILES: CC(C)(N)c1ccc(-c2ccc3[nH]nc(N)c3c2)cc1 [Compound 5-11, 3-Amino-5-[4-(1-amino-1-methylethyl)phenyl]-1H-indazole trihydrochloride]
- Ki: 144 nM

SMILES: CC(C)(N)c1ccc(-c2ccc3[nH]ncc3c2OCC(F)(F)F)cc1 [Compound 5-54, 5-[4-(1-Amino-1-methylethyl)phenyl]-4-(2,2,2-tri-fluoroethoxy)-1H-indazole dihydrochloride]
- Ki: 31 nM

SMILES: CC(C)(N)c1ccc(-c2ccc3[nH]ncc3c2-c2ccccn2)cc1 [Compound 5-63, 5-[4-(1-Amino-1-methylethyl)phenyl]-4-(pyridin-2-yl)-1H-indazole trihydrochloride]
- Ki: 241 nM

SMILES: CCCOc1c(-c2ccc(C(C)(C)N)cc2)ccc2[nH]ncc12 [Compound 5-52, 5-[4-(1-Amino-1-methylethyl)phenyl]-4-n-propoxy-1H-indazole dihydrochloride]
- Ki: 14 nM

SMILES: CC(C)(N)c1ccc(-c2ccc3[nH]ncc3c2[N+](=O)[O-])nc1 [Compound 5-17, 5-[5-(1-Amino-1-methylethyl)pyridin-2-yl]-4-nitro-1H-indazole dihydrochloride]
- Ki: 199 nM

SMILES: Nc1c(-c2ccc(C3(N)CCCC3)cc2)ccc2[nH]ncc12 [Compound 5-21, 4-Amino-5-[4-(1-aminocyclopentyl)phenyl]-1H-indazole dihydrochloride]
- Ki: 26 nM

SMILES: COC(=O)c1n[nH]c2ccc(-c3ccc(C(C)(C)N)cc3)cc12 [Compound 5-8, 5-[4-(1-Amino-1-methylethyl)phenyl]-3-methoxy-carbonyl-1H-indazole dihydrochloride]
- Ki: 97 nM

SMILES: CC(C)(N)c1ccc(-c2ccc3[nH]nc(C=NO)c3c2)cc1 [Compound 5-12, 5-[4-(1-Amino-1-methylethyl)phenyl]-3-hydroxyimino-methyl-1H-indazole monohydrochloride]
- Ki: 7.5 nM

SMILES: CC(C)(N)c1ccc(-c2ccc3[nH]ncc3c2-c2cccnc2)cc1 [Compound 5-62, 5-[4-(1-Amino-1-methylethyl)phenyl]-4-(pyridin-3-yl)-1H-indazole trihydrochloride]
- Ki: 126 nM

SMILES: CC(C)(N)c1ccc(-c2ccc3[nH]ncc3c2N2CCCCC2)cc1 [Compound 5-41, 5-[4-(1-Amino-1-methylethyl)phenyl]-4-(piperidin-1-yl)-1H-indazole trihydrochloride]
- Ki: 14 nM

SMILES: CC(C)(N)c1ccc(-c2ccc3[nH]ncc3c2C#N)cc1 [Compound 5-36, 5-[4-(1-Amino-1-methylethyl)phenyl]-4-cyano-1H-indazole monohydrochloride]
- Ki: 35 nM

SMILES: CC(N)c1ccc(-c2ccc3[nH]ncc3c2N(C)C)cc1 (centres unmarked) [Compound 5-26, 5-[4-(1-Aminoethyl)phenyl]-4-dimethylamino-1H-indazole trihydrochloride]
- Ki: 27 nM

SMILES: CC(C)(N)c1ccc(-c2ccc3[nH]ncc3c2-c2ccno2)cc1 [Compound 5-68, 5-[4-(1-Amino-1-methylethyl)phenyl]-4-(isoxazol-5-yl)-1H-indazole dihydrochloride]
- Ki: 6.4 nM

SMILES: CCCCOc1c(-c2ccc(C(C)(C)N)cc2)ccc2[nH]ncc12 [Compound 5-55, 5-[4-(1-Amino-1-methylethyl)phenyl]-4-n-butoxy-1H-indazole dihydrochloride]
- Ki: 13 nM

SMILES: CC(C)(N)c1ccc(-c2ccc3[nH]ncc3c2-c2ccncc2)cc1 [Compound 5-61, 5-[4-(1-Amino-1-methylethyl)phenyl]-4-(pyridin-4-yl)-1H-indazole trihydrochloride]
- Ki: 45 nM

SMILES: CC(C)(N)c1ccc(-c2ccc3[nH]ncc3c2CO)cc1 [Compound 5-35, 5-[4-(1-Amino-1-methylethyl)phenyl]-4-hydroxymethyl-1H-indazole dihydrochloride]
- Ki: 139 nM

SMILES: CC(C)(N)c1ccc(-c2ccc3[nH]ncc3c2NCc2ccccc2)cc1 [Compound 5-6, 5-[4-(1-Amino-1-methylethyl)phenyl]-4-benzylamino-1H-indazole dihydrochloride]
- Ki: 260 nM

SMILES: CC(C)(N)c1ccc(-c2ccc3[nH]ncc3c2N2CCOCC2)cc1 [Compound 5-43, 5-[4-(1-Amino-1-methylethyl)phenyl]-4-(morpholin-4-yl)-1H-indazole trihydrochloride]
- Ki: 211 nM

SMILES: CC(C)(N)c1ccc(-c2ccc3[nH]ncc3c2C2CC2)nc1 [Compound 5-29, 5-[5-(1-Amino-1-methylethyl)pyridin-2-yl]-4-cyclo-propyl-1H-indazole trihydrochloride]
- Ki: 2.7 nM

SMILES: CCN(CC)c1c(-c2ccc(C(C)(C)N)cc2)ccc2[nH]ncc12 [Compound 5-31, 5-[4-(1-Amino-1-methylethyl)phenyl]-4-diethylamino-1H-indazole trihydrochloride]
- Ki: 614 nM

SMILES: CC(C)(N)c1ccc(-c2ccc3[nH]ncc3c2CCO)nc1 [Compound 5-33, 5-[5-(1-Amino-1-methylethyl)pyridin-2-yl]-4-(2-hydroxyethyl)-1H-indazole trihydrochloride]
- Ki: 234 nM

SMILES: CC(C)(N)c1ccc(-c2ccc3[nH]ncc3c2N)cc1 [Compound 5-5, 4-Amino-5-[4-(1-amino-1-methylethyl)phenyl]-1H-indazole trihydrochloride]
- Ki: 44 nM

SMILES: CCC(N)(CC)c1ccc(-c2ccc3[nH]ncc3c2N(C)C)cc1 [Compound 5-25, 5-[4-(1-Amino-1-ethylpropyl)phenyl]-4-dimethylamino-1H-indazole trihydrochloride]
- Ki: 23 nM

Source: US8232308B2, “Methods for treating a disease in which Rho kinase is involved” (UBE Industries, Ltd., priority 2003, dated 2012)
